Source: ChEMBL document CHEMBL1121945, “Nitrogen bridgehead compounds. 18. New antiallergic 4H-pyrido[1,2-a]pyrimidin-4-ones. 1” (J Med Chem, 1982)

Tests used:
Rattus norvegicus [1] = organism: Rattus norvegicus; assay: Inhibition of histamine release from sensitized rat mast cells in vitro; format: functional
Rattus norvegicus [2] = assay: Inhibition of rat passive cutaneous anaphylaxis (PCA) reaction after intravenous administration; format: functional; settings: for ED50: Rattus norvegicus, iv, read-out: ID50 (the source's name)
Rattus norvegicus [3] = organism: Rattus norvegicus; assay: The compound was tested for its ability to inhibit histamine release from sensitized rat mast cells in vitro; format: functional, cell-based
Rattus norvegicus [4] = assay: Inhibition of rat passive cutaneous anaphylaxis (PCA) reaction was determined after oral administration; format: functional; settings: for ED50: read-out: ID50 (the source's name)
[5] = Rattus norvegicus, Mast cell, read-out: EC50

Compound	ED50 (Rattus norvegicus [2]) [µmol/kg]	ED50 (Rattus norvegicus [4]; Rattus norvegicus, po) [µmol/kg]	EC50 (Rattus norvegicus [1]; [5]) [µM]	also measured
CC1CCC(=NNc2ccccc2C(=O)O)c2ncc(C(=O)O)c(=O)n21 (single isomer, unassigned; (+))				EC50 (Rattus norvegicus [1]; mast cells): 1100 uM l-1; ID50 (Rattus norvegicus [2]): 37.1 µM/kg
CC1CC/C(=N\Nc2cccc(C(=O)O)c2)c2ncc(C(=O)O)c(=O)n21 (configuration not stated)	26.6	> 100		EC50 (Rattus norvegicus [3]; Mast cell): 10 µM
CC1CCCc2ncc(C(=O)O)c(=O)n21 (configuration not stated)	240			
CC(=O)c1ccc(N/N=C2\CCC(C)n3c2ncc(C(=O)O)c3=O)cc1 (configuration not stated)	9.5	> 100	8.1	
CC1CCC(=NNc2ccccc2C(=O)O)c2ncc(C(=O)O)c(=O)n21 (stereo in doubt; 56)				EC50 (Rattus norvegicus [3]): 1300 uM l-1; ID50 (Rattus norvegicus [2]): 0.48 µM/kg
CCOC(=O)c1cnc2n(c1=O)C(C)CC/C2=N\Nc1ccccc1C(=O)O (configuration not stated)	10		100	
CC1C/C(=N\Nc2ccccc2)c2ncc(C(=O)O)c(=O)n2C1 (configuration not stated)	5.7	> 320	13	
CCCCc1ccc(N/N=C2\CCC(C)n3c2ncc(C(=O)O)c3=O)cc1 (configuration not stated)	7.8	100	0.7	
COc1ccccc1N/N=C1\CCC(C)n2c1ncc(C(=O)O)c2=O (configuration not stated)		> 1000		
CC1CC/C(=N\Nc2ccc(I)cc2)c2ncc(C(=O)O)c(=O)n21 (configuration not stated)		> 1000		
CCOC(=O)c1cccc(N/N=C2\CCC(C)n3c2ncc(C(=O)O)c3=O)c1 (configuration not stated)		> 100		
CCOC(=O)c1cnc2n(c1=O)C(C)CC/C2=N\Nc1ccccc1 (configuration not stated)		> 1000		
C[C@@H]1CC/C(=N\Nc2ccc(O)cc2)c2ncc(C(=O)O)c(=O)n21	0.14	> 100	15.6	
CC1CC/C(=N\Nc2ccccc2)c2ncc(C#N)c(=O)n21 (configuration not stated)		> 1000		
CCOc1ccccc1N/N=C1\CCC(C)n2c1ncc(C(=O)O)c2=O (configuration not stated)		> 1000		
CC1CC/C(=N\Nc2cccc(I)c2)c2ncc(C(=O)O)c(=O)n21 (configuration not stated)		> 1000		
CC1CC/C(=N\Nc2ccccc2C(=O)O)c2nccc(=O)n21 (configuration not stated)	> 100	> 100	100	
CC1CC/C(=N\Nc2ccc(C(=O)O)cc2)c2nccc(=O)n21 (configuration not stated)	> 100	> 100		EC50 (Rattus norvegicus [1]; mast cells): 450 uM l-1
CC1CC/C(=N\Nc2ccccc2)c2ncc(C(=O)NN)c(=O)n21 (configuration not stated)		> 1000		
CCOC(=O)c1cnc2n(c1=O)C(C)CC/C2=N\Nc1ccc(C(=O)O)cc1 (configuration not stated)	100		66	
CC1CC/C(=N\Nc2ccccc2O)c2ncc(C(=O)O)c(=O)n21 (configuration not stated)	0.26	> 100		EC50 (Rattus norvegicus [1]; mast cells): 208 uM l-1
Cc1cccc(N/N=C2\CCC(C)n3c2ncc(C(=O)O)c3=O)c1 (configuration not stated)	0.4	72.5	72.9	
CCOC(=O)c1cnc2n(c1=O)C(C)CC/C2=N\Nc1cccc(C(=O)O)c1 (configuration not stated)	100			EC50 (Rattus norvegicus [1]; mast cells): 740 uM l-1

Compound	ED50 (Rattus norvegicus [2]) [µmol/kg]	ED50 (Rattus norvegicus [4]; Rattus norvegicus, po) [µmol/kg]	EC50 (Rattus norvegicus [1]; [5]) [µM]	also measured
CC1CC/C(=N\Nc2ccc(Cl)cc2)c2ncc(C(=O)O)c(=O)n21 (configuration not stated)	0.5			EC50 (Rattus norvegicus [3]; Mast cell): 16.6 µM; ED50 (Rattus norvegicus [4]): > 100 µmol/kg
CC(=O)c1cccc(N/N=C2\CCC(C)n3c2ncc(C(=O)O)c3=O)c1 (configuration not stated)		> 1000		
CC1CC/C(=N\Nc2cccc(C(=O)O)c2)c2nccc(=O)n21 (configuration not stated)	> 100	> 100		EC50 (Rattus norvegicus [1]; mast cells): 655 uM l-1
CC1CC/C(=N\Nc2ccc(C(=O)O)cc2)c2ncc(C(=O)O)c(=O)n21 (configuration not stated)	7.6			EC50 (Rattus norvegicus [1]; mast cells): 1000 uM l-1
CC1CC/C(=N\Nc2cccc([N+](=O)[O-])c2)c2ncc(C(=O)O)c(=O)n21 (configuration not stated)	0.5			ED50 (Rattus norvegicus [4]): > 100 µmol/kg
COc1ccc(N/N=C2\CCC(C)n3c2ncc(C(=O)O)c3=O)cc1 (configuration not stated)	0.8	7.6		EC50 (Rattus norvegicus [1]; mast cells): 128 uM l-1
CC1CC/C(=N\Nc2ccccc2)c2nccc(=O)n21 (configuration not stated)		> 100		
CC1CC/C(=N\Nc2ccc(CC(=O)O)cc2)c2ncc(C(=O)O)c(=O)n21 (configuration not stated)	60.9	> 100	3.4	
CC(=O)c1ccccc1N/N=C1\CCC(C)n2c1ncc(C(=O)O)c2=O (configuration not stated)		> 1000		
CC1CC/C(=N\Nc2ccccc2[N+](=O)[O-])c2ncc(C(=O)O)c(=O)n21 (configuration not stated)		> 1000		
CCOc1ccc(N/N=C2\CC[C@@H](C)n3c2ncc(C(=O)O)c3=O)cc1	0.2	> 100	1	
CC1CC/C(=N\Nc2cccc(C(F)(F)F)c2)c2ncc(C(=O)O)c(=O)n21 (configuration not stated)		> 1000		
CC1CC/C(=N\Nc2cccc(Cl)c2)c2ncc(C(=O)O)c(=O)n21 (configuration not stated)	0.6	> 100		EC50 (Rattus norvegicus [1]; mast cells): 311 uM l-1
CC1CC/C(=N\Nc2ccc(-c3ccccc3)cc2)c2ncc(C(=O)O)c(=O)n21 (configuration not stated)	1.1	> 100	4.4	
CC1CCC(=NNc2ccccc2)c2ncc(C(=O)O)c(=O)n21 (configuration not stated)	0.6	1.2	2.2	
CCOc1cccc(N/N=C2\CCC(C)n3c2ncc(C(=O)O)c3=O)c1 (configuration not stated)	0.2	> 100	4.7	
O=C(O)c1cnc2n(c1=O)CCC/C2=N\Nc1ccccc1	31.6	> 100	2.9	
Cc1ccc(N/N=C2\CCC(C)n3c2ncc(C(=O)O)c3=O)cc1 (configuration not stated)	1.3	> 1000	0.28	
CC(C)c1ccc(N/N=C2\CCC(C)n3c2ncc(C(=O)O)c3=O)cc1 (configuration not stated)	2.4	> 100	1.2	
CNC(=O)c1ccc(N/N=C2\CCC(C)n3c2ncc(C(=O)O)c3=O)cc1 (configuration not stated)	9.6	> 100	100	
CC1CCC(=NNc2ccccc2C(=O)O)c2ncc(C(=O)O)c(=O)n21 (stereo in doubt; 57)		> 100		EC50 (Rattus norvegicus [1]; mast cells): 569 uM l-1; ID50 (Rattus norvegicus [2]): 0.5 µM/kg
CCOc1ccc(N/N=C2\CC[C@H](C)n3c2ncc(C(=O)O)c3=O)cc1	100	> 100	19.2	
CC1CC/C(=N\Nc2ccccc2C(F)(F)F)c2ncc(C(=O)O)c(=O)n21 (configuration not stated)		> 1000		

Compound	ED50 (Rattus norvegicus [2]) [µmol/kg]	ED50 (Rattus norvegicus [4]; Rattus norvegicus, po) [µmol/kg]	EC50 (Rattus norvegicus [1]; [5]) [µM]	also measured
CC1CC/C(=N\Nc2ccc(O)cc2)c2ncc(C(=O)O)c(=O)n21 (configuration not stated)	1.7	> 100	1.3	
CC1CC/C(=N\Nc2ccccc2F)c2ncc(C(=O)O)c(=O)n21 (configuration not stated)	5	> 1000	1.2	
CC1CC/C(=N\Nc2ccc(C3CC3)cc2)c2ncc(C(=O)O)c(=O)n21 (configuration not stated)	41.1	100	1	
CC1CCn2c(ncc(C(=O)O)c2=O)/C1=N/Nc1ccccc1 (configuration not stated)	32	> 320	5.4	
C[C@H]1CC/C(=N\Nc2ccc(O)cc2)c2ncc(C(=O)O)c(=O)n21	110	> 100	26.2	
CCc1ccc(N/N=C2\CCC(C)n3c2ncc(C(=O)O)c3=O)cc1 (configuration not stated)		> 1000		
CC1CC/C(=N\Nc2ccc(C(F)(F)F)cc2)c2ncc(C(=O)O)c(=O)n21 (configuration not stated)	38.6	> 1000	0.28	
C[C@H]1CCC(=NNc2ccccc2)c2ncc(C(=O)O)c(=O)n21 (single isomer, unassigned; (+))				EC50 (Rattus norvegicus [1]; mast cells, read-out: EC50): 0.6 µM; ID50 (Rattus norvegicus [2]): 0.3 µM/kg; ID50 (Rattus norvegicus [4]): 1 µM/kg
CC1CC/C(=N\Nc2ccccc2Cl)c2ncc(C(=O)O)c(=O)n21 (configuration not stated)		> 1000		
CC1CC/C(=N\Nc2ccc(Br)cc2)c2ncc(C(=O)O)c(=O)n21 (configuration not stated)	0.8	> 100	2	
CC1CC/C(=N\Nc2cccc(Br)c2)c2ncc(C(=O)O)c(=O)n21 (configuration not stated)	0.4	> 320	6.7	
CC1CC/C(=N\Nc2ccccc2Br)c2ncc(C(=O)O)c(=O)n21 (configuration not stated)		> 320		
C[C@H]1CCC(=NNc2ccccc2)c2ncc(C(=O)O)c(=O)n21 (single isomer, unassigned; (-))				EC50 (Rattus norvegicus [1]; mast cells, read-out: EC50): 8 µM; ID50 (Rattus norvegicus [2]): 54.8 µM/kg; ID50 (Rattus norvegicus [4]): >100 µM/kg
CC1CC/C(=N\Nc2ccc(F)cc2)c2ncc(C(=O)O)c(=O)n21 (configuration not stated)	12.2	> 1000	1.2	
CC1CC/C(=N\Nc2ccccc2I)c2ncc(C(=O)O)c(=O)n21 (configuration not stated)		> 1000		
O=C(O)c1cc(=O)c2c(OCC(O)COc3cccc4oc(C(=O)O)cc(=O)c34)cccc2o1 [CROMOLYN SODIUM]	1			
Cc1ccccc1N/N=C1\CCC(C)n2c1ncc(C(=O)O)c2=O (configuration not stated)		> 1000		
CC1CC/C(=N\Nc2ccc([N+](=O)[O-])cc2)c2ncc(C(=O)O)c(=O)n21 (configuration not stated)	0.8	> 320	8.9	
CC1CC/C(=N\Nc2ccccc2CCO)c2ncc(C(=O)O)c(=O)n21 (configuration not stated)	10.8	> 100		EC50 (Rattus norvegicus [1]; mast cells): 330 uM l-1
CC1CC/C(=N\Nc2ccccc2)c2ncc(C(N)=O)c(=O)n21 (configuration not stated)		> 1000		
CC1CC/C(=N\Nc2ccccc2)c2ncc(CC(=O)O)c(=O)n21 (configuration not stated)	100			EC50 (Rattus norvegicus [1]; mast cells): 430 uM l-1
CCOc1ccc(N/N=C2\CCC(C)n3c2ncc(C(=O)O)c3=O)cc1 (configuration not stated)	1.6	> 100	17.6	
